Data published in patent US6287840A (Axys Pharmaceuticals, Inc., priority 1999, dated 2001).

Tests used:
cruzain, from T. cruzi = cruzain, from T. cruzi (Trypanosoma cruzi, UniProt P25779); assay: Inhibition of cruzain, as for cathepsin L; format: biochemical; settings: for k/KI (kirr/KI): values without asterisk
Description: (§1) Stock solutions of the various inhibitors (10 mM) were made in DMF; dilutions were made in the same solvent. Cathepsin L from rat liver, (see Mason et al., Biochem. J. 226:233-241 (1985)) was approximately 1 nM in the assay. The assay buffer contained 50 mM phosphate at pH 6:2, 2.5 mM dithiothreitol (DTT), and 2.5 mM ethylenediaminetetraacetic acid (EDTA). The substrate for cathepsin L was 5 μM Z-Phe-Arg-AMC (carbobenzyloxyphenylalanylarginylaminomethylcoumarin). The assays were initiated at 25° C. by addition of enzyme to 2 mL of assay buffer containing the substrate and the various inhibitors (30-0.001 μM). The increase in fluorescence at 460 nm with excitation at 380 nm was followed with time. Inactivation of cathepsin L was indicated by a downward curve in the increase in fluorescence with time. In the absence of inhibitors, the enzymatic production of free AMC was linear throughout the time course of inactivation examined. Data points were collected over at least 3 half-times of inactivation. The inhibition progress curves were analyzed using non-linear curve fitting software to compute the kobs values. Approximate second-order inactivation constants (kobs /[I]) were calculated for all compounds. For selected inhibitors, plots of 1/[I] vs. 1/kobs yielded the true constants kirr, KI, and kirr/KI and were corrected for the presence of substrate by dividing KI (app.) by (1+[S]/Km).
Inhibition of cruzain, from T. cruzi, (see Eakin et at., J. Biol. Chem. 268(9): 6115-6118 (1993)) proceeded exactly as for cathepsin L, outlined above, using an enzyme concentration of 1 nM.

[1] = biological target: T1, Cathepsin L from rat liver (Rattus norvegicus, UniProt P07154); assay: Inhibition of cathepsin L, Z-Phe-Arg-AMC fluorescence progress curves; format: biochemical; settings: for k/KI (kirr/KI): values without asterisk
T1 construct: Cathepsin L from rat liver; from tissue; host or cells: rat liver
Description: as §1

calpain = assay: Inhibition (inactivation) of calpain, Suc-Leu-Tyr-AMC; format: biochemical; settings: values marked * (or %), pH 7.5, 5 mM CaCl2, 25° C.
Description: The inhibitors were tested against calpain at 1 or 2% as for the other enzymes. The reaction conditions were 50 mM Tris, pH 7.5, 5 mM CaCl2, 2.5 mM DTT, assayed at 25° C. The substrate was 100 μM Suc-Leu-Tyr-AMC.

[2] = test system: Trypanosoma brucei extracellular bloodstream forms; assay: In vitro antiprotozoal activity, Trypanosoma brucei; format: cell-based; settings: Trypanosoma brucei, read-out: percentage inhibition, T. brucei
Description: (§2) In this table, the in vitro antiprotozoal activities of the indicated compounds were measured as percentage inhibition of Leishmania donovani amastigote infecteda mouse peritoneal macrophages, Trypanosoma cruzi amastigote infected macrophages, and Trypanosoma brucei extracellular bloodstream forms.

[3] = test system: Leishmania donovani amastigote infected mouse peritoneal macrophages; assay: In vitro antiprotozoal activity, Leishmania donovani; format: cell-based; settings: Leishmania donovani, Peritoneal macrophage, read-out: percentage inhibition, L. donovani
Description: as §2

[4] = test system: Trypanosoma cruzi amastigote infected macrophages; assay: In vitro antiprotozoal activity, Trypanosoma cruzi; format: cell-based; settings: Trypanosoma cruzi, Macrophage, read-out: percentage inhibition, T. cruzi
Description: as §2

[5] = biological target: T2, Cathepsin B from human placenta (Homo sapiens, UniProt P07858); assay: Inhibition of cathepsin B, Z-Arg-Arg-AMC fluorescence progress curves; format: biochemical; settings: for k/KI (kirr/KI): values without asterisk
T2 construct: Cathepsin B from human placenta, obtained from Sigma; purchased Sigma; host or cells: human placenta (tissue)
Description: Stock solutions of the various inhibitors (10 mM) were made in DMF; dilutions were made in the same solvent. Cathepsin B from human placenta, obtained from Sigma, was approximately 10 nM in the assay. The assay buffer contained 50 mM phosphate at pH 6.2, 2.5 mM dithiothreitol (DTT), and 2.5 mM ethylenediaminetetraacetic acid (EDTA). The substrate for cathepsin B was 50 μM Z-Arg-Arg-AMC (carbobenzyloxyarginylarginylaminomethylcoumarin). The assays were initiated at 25° C. by addition of enzyme to 2 mL of assay buffer containing the substrate and the various inhibitors (30-0.001 (μM). The increase in fluorescence at 460 nm with excitation at 380 nm was followed with time, and the assay was linear throughout the range observed. Inactivation of cathepsin B was indicated by a downward curve in the increase in fluorescence with time. In the absence of inhibitors, the enzymatic production of free AMC was linear throughout the time course of inactivation examined. Data points were collected over at least 3 half-times of inactivation, and in duplicate. The inhibition progress curves were analyzed using non-linear curve fitting software to compute the kobs values. Approximate second-order inactivation constants (kobs /[I]) were calculated for all compounds. For selected inhibitors, plots of 1/[I] vs. 1/kobs yielded the true constants kirr, KI, and kirr /KI, and were corrected for the presence of substrate by dividing KI (app.) by {1+[S]/Km }.

Cloned cathepsin S = biological target: T3, Cloned cathepsin S (Homo sapiens, UniProt P25774); assay: Inhibition of cathepsin S, Z-Val-Val-Arg-AMC fluorescence progress curves; format: biochemical; settings: for k/KI (kirr/KI): values without asterisk
T3 construct: made in house
Description: Stock solutions of the various inhibitors (10 mM) were made in DMF; dilutions were made in the same solvent. Cloned cathepsin S, (see Bromme et al., J. Biol. Chem. 268(&): 4832-4838 (1993)) was less than 1 nM in the assay. The assay buffer contained 100 mM phosphate at pH 6.5, 0.01% Triton, 2.5 mM dithiothreitol (DTT), and 2.5 mM ethylenediaminetetraacetic acid (EDTA). The substrate for cathepsin S was 10 μM Z-Val-Val-Arg-AMC (carbobenzyloxyvalinylvalinylarginylaminomethylcoumarin). The assays were initiated at 25° C. by addition of enzyme to 2 mL of assay buffer containing the substrate and the various inhibitors (30-0.001 μM). The increase in fluorescence at 460 nm with excitation at 380 nm was followed with time. Inactivation of cathepsin S was indicated by a downward curve in the increase in fluorescence with time. In the absence of inhibitors, the enzymatic production of free AMC was linear throughout the time course of inactivation examined. Data points were collected over at least 3 half-times of inactivation. The inhibition progress curves were analyzed using non-linear curve fitting software to compute the kobs values. Approximate second-order inactivation constants (kobs /[I]) were calculated for all compounds. For selected inhibitors, plots of 1/[I] vs. 1/kobs yielded the true constants kirr, KI, and kirr /KI, and were corrected for the presence of substrate by dividing KI (app.) by {1+[S]/Km}.

[6] = values marked *, 25° C., pH 6.2, read-out: kobs /[I]* (approximate second-order inactivation constant)
[7] = values marked *, 25° C., pH 6.2
[8] = values marked *, 25° C., pH 6.5

T3 sequence (P25774 115-331): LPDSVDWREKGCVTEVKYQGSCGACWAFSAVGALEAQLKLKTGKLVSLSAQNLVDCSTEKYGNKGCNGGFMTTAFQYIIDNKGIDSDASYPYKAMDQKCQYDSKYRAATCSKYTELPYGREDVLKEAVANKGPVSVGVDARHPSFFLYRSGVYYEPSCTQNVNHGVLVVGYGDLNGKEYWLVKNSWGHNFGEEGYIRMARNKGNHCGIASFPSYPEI
Sequence of cruzain, from T. cruzi (P25779 123-337 limits assumed): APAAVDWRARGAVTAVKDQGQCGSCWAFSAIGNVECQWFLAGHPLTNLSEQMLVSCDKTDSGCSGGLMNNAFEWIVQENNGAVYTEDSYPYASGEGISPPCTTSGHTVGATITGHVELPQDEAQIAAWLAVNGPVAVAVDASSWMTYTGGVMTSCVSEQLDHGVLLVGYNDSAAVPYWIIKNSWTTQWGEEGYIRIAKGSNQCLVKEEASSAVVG
T1 sequence (P07154 114-288 limits assumed): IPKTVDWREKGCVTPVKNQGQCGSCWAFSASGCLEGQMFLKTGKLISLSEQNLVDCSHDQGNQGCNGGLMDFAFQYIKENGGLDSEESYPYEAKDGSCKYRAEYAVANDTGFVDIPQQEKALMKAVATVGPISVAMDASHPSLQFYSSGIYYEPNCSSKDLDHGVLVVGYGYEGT
T1 sequence (P07154 291-334 limits assumed): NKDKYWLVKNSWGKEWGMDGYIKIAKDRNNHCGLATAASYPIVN

Compound: CC(=O)N[C@@H](CC(C)C)C(=O)N[C@@H](CC(C)C)C(=O)N[C@H](/C=C/S(=O)(=O)c1ccccc1)CCS(C)(=O)=O [Ac-Leu-Leu-Met(O2)VSPh, (S)-(E)-3-(acetylleucylleucyl)amino-5-methylsulfonyl-1-phenylsulfonyl-1-pentene]
- k/KI (kirr/KI) (cruzain, from T. cruzi): 104,000 M^-1 sec^-1
- k/KI (kirr/KI) ([1]; 25° C., pH 6.2): 1,500,000 M^-1 sec^-1
- kobs /[I]* (calpain): 8,400 M^-1 sec^-1

Compound: C[C@H](NC(=O)OC(C)(C)C)C(=O)N[C@H](/C=C/S(C)(=O)=O)Cc1ccccc1 [Boc-Ala-PheVSMe, (S)-(E)-3-(tert-2butoxycarbonylalanyl)amino-1-methylsulfonyl-4-phenyl-1-butene]
- kobs /[I]* (calpain): 60 M⁻¹ s⁻¹

Compound: Cl.NCC(=O)N[C@H](/C=C/S(=O)(=O)c1ccccc1)Cc1ccccc1 [HCl.Gly-Phe-VSPh, (S)-(E)-3-glycylamino-4-phenyl-1-phenylsulfonyl-1-butene hydrochloride]
- inhibition at 3 µM ([2]; 3 uM): 0%
- inhibition at 10 µM ([2]; 10 uM): 0%
- inhibition at 30 µM ([2]; 30 uM): 0%
- inhibition at 90 µM ([2]; 90 uM): 0%
- inhibition at 10 µM ([3]; 10 uM): 0%
- inhibition at 30 µM ([3]; 30 uM): 0%
- inhibition at 90 µM ([3]; 90 uM): 4.02%
- inhibition at 3 µM ([4]; 3 uM): 0%
- inhibition at 10 µM ([4]; 10 uM): 0%
- inhibition at 30 µM ([4]; 30 uM): 0.1%
- inhibition at 90 µM ([4]; 90 uM): 0%
- kobs /[I]* (calpain): < 50 M⁻¹ s⁻¹

Compound: COC(=O)CCC(=O)N[C@@H](Cc1ccccc1)C(=O)N[C@H](/C=C/S(=O)(=O)c1ccccc1)CCc1ccccc1 [MeOSuc-Phe-HphVSPh, (S)-(E)-3-(carbomethoxypropionylphenylalanyl)amino-5-phenyl-1-phenylsulfonyl-1-pentene]
- kinact/KI [5, 6]: 870 M⁻¹ s⁻¹
- kinact/KI (cruzain, from T. cruzi; pH 6.2, values marked *, read-out: kobs /[I]* (approximate second-order inactivation constant)): 34000 M⁻¹ s⁻¹
- kinact/KI (Cloned cathepsin S; values marked *, 25° C., pH 6.5, read-out: kobs /[I]* (approximate second-order inactivation constant)): 740000 M⁻¹ s⁻¹
- kinact/KI [1, 6]: 47000 M⁻¹ s⁻¹

Compound: O=C(N[C@H](/C=C/S(=O)(=O)c1ccc2ccccc2c1)CCc1ccccc1)C(Cc1ccc2ccccc2c1)NC(=O)N1CCOCC1 (stereo partly drawn) [Mu-Np-HphVSNp, (S)-(E)-3-(4-morpholinecarbonyl-2-naphthylalanyl)amino-1-(2-napthylsulfonyl)-5-phenyl-1-pentene]
- kobs /[I]* (approximate second-order inactivation constant) [5, 7]: 184,000 M^-1 sec^-1
- Ki (cruzain, from T. cruzi): 25 nM
- kirr (cruzain, from T. cruzi): 0.044 s⁻¹
- k/KI (kirr/KI) (cruzain, from T. cruzi): 1,770,000 M^-1 sec^-1
- kirr (Cloned cathepsin S): 0.10 s⁻¹
- Ki (Cloned cathepsin S; corrected for substrate): 1.8 nM
- k/KI (kirr/KI) (Cloned cathepsin S; 25° C., pH 6.5): 56,000,000 M^-1 sec^-1
- kirr [1]: 0.14 s⁻¹
- Ki ([1]; corrected for substrate): 18 nM
- k/KI (kirr/KI) ([1]; 25° C., pH 6.2): 9,200,000 M^-1 sec^-1

Compound: O=C(N[C@H](/C=C/S(=O)(=O)c1ccc2ccccc2c1)CCc1ccccc1)[C@H](Cc1ccccc1)NC(=O)N1CCOCC1 [Mu-Phe-HphVSNp, (S)-(E)-3-(4-morpholinecarbonylphenylalanyl)amino-1-(2-napthylsulfonyl)-5-phenyl-1-pentene]
- kirr [5]: 0.087 s⁻¹
- Ki ([5]; corrected for substrate): 1400 nM
- k/KI (kirr/KI) ([5]; 25° C., pH 6.2): 63,700 M^-1 sec^-1
- Ki (cruzain, from T. cruzi): 110 nM
- kirr (cruzain, from T. cruzi): 0.08 s⁻¹
- k/KI (kirr/KI) (cruzain, from T. cruzi): 740,000 M^-1 sec^-1
- kobs /[I]* (approximate second-order inactivation constant) (Cloned cathepsin S; [8]): > 5,400,000 M^-1 sec^-1

Compound: CSCC[C@@H](/C=C/S(=O)(=O)c1ccccc1)NC(=O)[C@H](Cc1ccccc1)NC(=O)N1CCOCC1 [Mu-Phe-MetVSPh, (S)-(E)-3-(4-morpholinecarbonylphenylalanyl)amino-1-phenylsulfonyl-6-thia-1-heptene]
- k/KI (kirr/KI) ([5]; 25° C., pH 6.2): 7,000 M^-1 sec^-1
- k/KI (kirr/KI) (cruzain, from T. cruzi): 111,000 M^-1 sec^-1
- k/KI (kirr/KI) (Cloned cathepsin S; 25° C., pH 6.5): 4,000,000 M^-1 sec^-1
- k/KI (kirr/KI) ([1]; 25° C., pH 6.2): 250,000 M^-1 sec^-1

Compound: CCCC[C@@H](/C=C/S(=O)(=O)c1ccccc1)NC(=O)[C@H](Cc1ccccc1)NC(=O)N1CCOCC1 [Mu-Phe-NleVSPh, (S)-(E)-3-(4-morpholinecarbonylphenylalanyl)amino-1-phenylsulfonyl-1-heptene]
- k/KI (kirr/KI) ([5]; 25° C., pH 6.2): 7,600 M^-1 sec^-1
- k/KI (kirr/KI) (cruzain, from T. cruzi): 77,000 M^-1 sec^-1
- kobs /[I]* (approximate second-order inactivation constant) (Cloned cathepsin S; [8]): 2,300,000 M^-1 sec^-1
- k/KI (kirr/KI) ([1]; 25° C., pH 6.2): 188,000 M^-1 sec^-1

Compound: Cl.N[C@H](/C=C/S(=O)(=O)c1ccccc1)Cc1ccccc1 [Phe-VSPh, (S)-(E)-3-amino-4-phenyl-1-phenylsulfonyl-1-butene hydrochloride]
- kobs /[I]* (calpain): < 50 M⁻¹ s⁻¹

Compound: (S)-(E)-3-(4-morpholinecarbonylleucylleucyl)amino-4-(4-hydroxyphenyl)-1-phenylsulfonyl-1-butene [Mu-Leu-Leu-TyrVSPh]
- kobs /[I]* (approximate second-order inactivation constant) (Cloned cathepsin S; [8]): 25,100 M^-1 sec^-1
- kobs /[I]* (calpain): 10,800 M^-1 sec^-1
- kobs /[I]* (calpain; listed as Mu-Leu-Leu-Tyr-VSPh): 7,600 M^-1 sec^-1

Compound: (S)-(E)-3-(4-morpholinecarbonylphenylalanyl)amino-5-methylsulfonyl-1-phenylsulfonyl-1-pentene [Mu-Phe-Met(O2)VSPh]
- kobs /[I]* (approximate second-order inactivation constant) [5, 7]: 1,600 M^-1 sec^-1
- k/KI (kirr/KI) (cruzain, from T. cruzi): 160,000 M^-1 sec^-1
- k/KI (kirr/KI) (Cloned cathepsin S; 25° C., pH 6.5): 2,800,000 M^-1 sec^-1
- k/KI (kirr/KI) ([1]; 25° C., pH 6.2): 250,000 M^-1 sec^-1

Compound: (S)-(E)-3-(4-morpholinecarbonylvalyl)amino-4-phenyl-1-phenylsulfonyl-1-butene [Mu-Val-PheVSPh]
- kobs /[I]* (calpain): 110 M⁻¹ s⁻¹
